Data published in patent US20120214821A1, “Lipidomic Biomarkers of Diabetes” (THE BROAD INSTITUTE, INC., priority 2011, published 2012).

Experiments:
[1] = 20 non-diabetic individuals, after four doses of metformin 500 mg over two days; baseline 95 mg/dL; p=0.022
Method: (§1) Pharmacologic studies were performed as follows. […] After a washout period of 6 days, subjects received metformin 500 mg twice daily for two days in order to reduce hepatic gluconeogenesis, and then underwent a 75 g OGTT in the presence of metformin. […] From the first 164 subjects completing the protocol, 20 participants were selected who represented both high and low ends of the HOMA-IR range.
(§2) OGTT causes an acute rise in plasma glucose, which then triggers a rise in insulin.
(§3) After a washout period of 6 days, these 20 individuals were then administered four doses of metformin (500 mg) over two days. Although chronic metformin use decreases insulin resistance, its acute effect is to decrease hepatic glucose output, and as a result, lower plasma insulin (10).

plasma TAGs = details: 20 non-diabetic individuals, after four doses of metformin 500 mg over two days (FIG. 6C)
Method: as §1, §2, §3

CN(C)C(=N)N=C(N)N [metformin]
mean plasma glucose [1]: 86 mg/dL | TAG response (change of plasma TAGs by carbon number and double bond content) (plasma TAGs): an increase in TAGs of lower carbon number and double bond content, and a decrease in TAGs of higher carbon number and double bond content
